Source: patent publication US20050119310A1, “Use of n-substituted-1,5-dideoxy-1,5-imino-d-glucitol compounds for treating hepatitis virus infections” (priority 2000, published 2005)

What was measured:
[1] = tested on: hepatitis B virus in HepG 2.2.15 (2.2.15) cells; test: IC-90 values used for the combostat method (earlier determinations); type: cell-based; conditions: HepG2.2.15, T. Block and G. Jacob, unpublished observation
Procedure: The anti-hepatitis B virus effect of (−)-2′-deoxy-3′-thiocytidine-5′-triphosphate (3TC) alone and in combination with N-nonyl-DNJ was determined according to Korba ((1996) Antiviral Research 29(1):49-51), using the “combostat” strategy (Comstat Program, Combostat Corp., Duluth, Minn.). The combostat method involves serially diluting the IC-90 of each compound. The IC-90 of N-nonyl-DNJ has been determined to be between 4 and 10 μg/ml (T. Block and G. Jacob, unpublished observation). The accepted IC-90 for 3TC in HepG 2.2.15 (2.2.15) cells is 300 nM to 500 nM (Doong et al. (1991) Proc. Natl. Acad. Sci. USA 88:8495-8499).

[2] = tested on: woodchuck hepatitis virus (WHV); test: Woodchuck model, N-nonyl-DNJ monotherapy, total HBV DNA and immune precipitated HBV DNA (IPDNA); type: in vivo
Procedure: Therefore, five groups of four animals each (all groups had both sexes, all but the control had two of each sex) were assigned to 0, 12.5, 25, 50, and 100 mg/kg/day with BID oral dosing. These were lab-reared wild animals. All animals were infected with woodchuck hepatitis virus (WHV) as neonates, and had been tested positive on serological tests for WHV surface antigen. Blood samples were drawn one week prior to dosing (−1 week), immediately before dosing (0 weeks), weekly during dosing (1, 2, 3, and 4 weeks), and after the end of dosing (5, 6, 8, and 10 weeks).
There are two measures of drug efficacy: reduction in total HBV DNA (measured by quantitative PCR), and reduction in HBV DNA from capsids with intact surface glycoproteins, which is the active form of the virus (measured by an ELISA-like immune precipitation assay followed by quantitative PCR).
Before models are fitted to the data, a log transform was applied because: 1) the variation in IPDNA increases with increasing IPDNA values; the log transformation gives values with a nearly constant variation, and 2) it is expected that drug effects will appear as a constant multiplier of the IPDNA level. Because there are zero values of IPDNA, a small value (about ½ of the smallest non-zero value) was added to all values before the log transform.
Two approaches were used to model the changes in slope to week with dose of N-nonyl-DNJ: a linear modeling approach and a nonlinear model. Both approaches assume that the (linear) rate of change of the Log(IPDNA) measure over the dosing period is the “right” measure to reflect the effect of the drug on the virus. Both approaches are fit in stages, and the first stage is common to both approaches. First, a simple straight line regression model is fit using weeks 0-4 to predict log(IPDNA+10) separately for each animal by run combination. In the second stage, the response variable is the slope fitted in the first stage.
For the linear approach, a model is fit with slope to week as the response where run is considered a block, dose has a significant effect (almost all of this effect is due to a slope to dose), and the relevant error for testing the effect of dose is the variation among animals treated alike (after the adjustment for the runs as blocks). This is similar to using the calibration data within each run to first adjust each run's data to a common virus DNA concentration; the difference is that here the data from the woodchucks are used for the run adjustment rather than only the calibration data.
For the nonlinear approach, a four parameter logistic model is fit with the slope to week as the response and the dose as the predictor. Again, run is considered a block, but because no run has all weeks, it is not possible to fully reflect the blocking in the nonlinear approach. […] The average maximum slope observed was 2.71 additional Log(IPDNA μg/mL)/week, or an increase of about 150%/week, the average minimum slope observed with N-nonyl-DNJ is 0.31 fewer Log(IPDNA μg/mL)/week), or about a decrease of about 25%/week. The slopes, the fitted model, the parameter estimates from the model, and the approximate standard errors for these parameters are all shown in FIG. 3. […] Whether in woodchucks or humans, the effective dose of both the N-alkyl-DNJ and nucleoside or nucleotide antiviral agent administered in combination therewith can be administered in two equal daily subdoses (i.e., B.I.D.).

Hepatitis B Virus = test: Hepatitis B virus secretion from chronically HBV secreting HepG2.2.15 cells (preS1 immunoprecipitation / PCR); type: cell-based; conditions: 3 days of incubation, control = 100%
Procedure: The anti-hepatitis B virus activity and effect on cell viability of a number of different N-substituted-1,5-dideoxy-1,5-imino-D-glucitol compounds were assessed using an in vitro assay employing chronically hepatitis B virus secreting HepG2.2.15 cells. The method employed was essentially that described in Block et al. (1994) Proc. Natl. Acad. Sci. USA 91:2235-2239.

[3] = woodchuck, weeks 0-4, with N-nonyl-DNJ

| SMILES | IC90 [1] | effect on total HBV DNA measurements ([2]; woodchuck, 12.5-100 mg/kg/day BID oral, 4 weeks of dosing) | EC50, four parameter logistic model of slope of Log(IPDNA+10) to week versus dose ([2]; woodchuck, oral BID) | increase of IPDNA at average maximum slope ([2]; woodchuck, weeks 0-4) | average maximum slope observed, additional Log(IPDNA)/week ([2]; woodchuck, weeks 0-4, upper end of fitted model) | average minimum slope observed, fewer Log(IPDNA)/week [2, 3] | decrease of IPDNA at average minimum slope [2, 3] | approximate effective monotherapy dose ([2]; woodchucks) | Relative amount of HBV secreted, as a % of control (Hepatitis B Virus; concentration [200]) | Relative amount of HBV secreted, as a % of control (Hepatitis B Virus; concentration [1000]) |
| --- | --- | --- | --- | --- | --- | --- | --- | --- | --- | --- |
| CCCCCCCCCN1C[C@H](O)[C@@H](O)[C@H](O)[C@H]1CO [Compound 1, N-(n-nonyl)-1,5-dideoxy-1,5-imino-D-glucitol] | 4 to 10 µg/mL | no effect | 7.88 mg/kg/BID dose | about 150 %/week | 2.71 Log(IPDNA μg/mL)/week | 0.31 Log(IPDNA μg/mL)/week | about 25 %/week | about 16 mg/kg/day |  |  |
| CCC(CC)CN1C[C@H](O)[C@@H](O)[C@H](O)[C@H]1CO [Compound 3, N-(2-ethylbutyl)-1,5-dideoxy-1,5-imino-D-glucitol] |  |  |  |  |  |  |  |  | 45.0 +/− 30 (n = 3) % | 5.0 +/− 20 (n = 3) % |
| CCCCN1C[C@H](O)[C@@H](O)[C@H](O)[C@H]1CO [NBDNJ, N-(n-butyl-)-1,5-dideoxy-1,5-imino-D-glucitol] |  |  |  |  |  |  |  |  | 37.0 +/− 13 (n = 15) % | 3.2 +/− 5 (n = 15) % |
